Experiment: Drug levels in plasma by LC-MS/MS as measure of adherence (Example 2)
Type: in vivo, human
Conditions: TDF-FTC group, first 113 participants enrolled; limit of detection 0.1 ng/ml tenofovir, 0.4 ng/ml FTC
Description: Pill count was the first measure of adherence. Participants were asked to return their study-drug bottles at each visit, and a pill count of unused medication was performed. We also measured drug levels in plasma in the first participants who were enrolled. Plasma was tested for the presence of tenofovir and FTC with the use of a validated liquid chromatography-tandem mass spectrometry method with a limit of detection of 0.1 ng per milliliter for tenofovir and 0.4 ng per milliliter for FTC. This plasma assay was able to detect drugs up to 9 days after intake.

SMILES | rate of detection in plasma
Nc1nc(=O)n([C@@H]2CS[C@H](CO)O2)cc1F [FTC, 4-amino-5-fluoro-1-[(2R,5S)-2-(hydroxymethyl)-1,3-oxathiolan-5-yl]-1,2-dihydropyrimidin-2-one] | 82%
C[C@H](Cn1cnc2c(N)ncnc21)OCP(=O)(O)O [tenofovir, ({[(2R)-1-(6-amino-9H-purin-9-yl)propan-2-yl]oxy}methyl)phosphonic acid] | 86%
